Measured values published in article PMC8071423, “A New Pyrimidine Schiff Base with Selective Activities against Enterococcus faecalis and Gastric Adenocarcinoma” (Molecules, 2021).
Values after ≈ are worked out from the molar mass of the structure shown. Where two headings read alike, the source gives them in different places.

Tests used:
[1] = test system: other cell lines (Caco-2, A172, HeLa, AGS); experiment: Neutral red uptake assay, other neoplastic cell lines; type: cell-based, human; settings: cell lines other than HepaRG; viability decreased at 100–1000 µM; 72 h exposure
Protocol: (§1) L-929 (mouse C3H/An connective tissue), Caco-2 (human colon adenocarcinoma), A172 (human glioblastoma), AGS (human gastric adenocarcinoma), HepaRG (human hepatoma cell), and HeLa (human cervix epithelioid carcinoma) cell lines were obtained from the European Collection of Authenticated Cell Cultures (ECACC) and provided by Sigma Aldrich/Merck (Munich, Germany). All cell lines were cultured in complete mediums prepared according to the ECACC recommendations and incubated in a humidified atmosphere with 5% CO2 at 37 °C. Neutral red uptake assay was performed according to the protocol. 24 h before treatment cells were seeded in 96-well plates in 1 × 10^5 cell/mL of complete medium. After incubation and attachment of cells, the medium was discarded, and test substances dissolved in the fresh medium were added to wells. Samples were tested after 24, 48, and 72 h incubation. A neutral red working solution (40 µg/mL) was prepared and incubated overnight. […] Absorption was measured using a Thermo Scientific™ (Waltham, MA, USA) Multiskan™ GO microplate spectrophotometer at 540 nm. […] Viability was calculated according to the following formula:(1) % Viability=ODtest substance−ODblind/ODnegative control−ODblind×100 Neutral red uptake assay was performed in quadruple (n = 4). Results were calculated to mean ± standard deviation (SD) using Microsoft Office Excel 2007. […]

[2] = test system: Enterococcus faecalis ATCC 29212; experiment: Antimicrobial microdilution / modified Richards method; type: cell-based; settings: range tested 1024 to 1 ug/mL
HepaRG = experiment: Neutral red uptake assay, HepaRG; type: cell-based; settings: Homo sapiens, 72 h exposure
Protocol: as §1

L-929 cell line = experiment: Neutral red uptake assay, L-929 cell line (primary screening); type: cell-based, mouse; settings: normal cell line L-929
Protocol: (§2) L-929 (mouse C3H/An connective tissue), Caco-2 (human colon adenocarcinoma), A172 (human glioblastoma), AGS (human gastric adenocarcinoma), HepaRG (human hepatoma cell), and HeLa (human cervix epithelioid carcinoma) cell lines were obtained from the European Collection of Authenticated Cell Cultures (ECACC) and provided by Sigma Aldrich/Merck (Munich, Germany). All cell lines were cultured in complete mediums prepared according to the ECACC recommendations and incubated in a humidified atmosphere with 5% CO2 at 37 °C. Neutral red uptake assay was performed according to the protocol. 24 h before treatment cells were seeded in 96-well plates in 1 × 10^5 cell/mL of complete medium. After incubation and attachment of cells, the medium was discarded, and test substances dissolved in the fresh medium were added to wells. Samples were tested after 24, 48, and 72 h incubation. A neutral red working solution (40 µg/mL) was prepared and incubated overnight. Immediately before use, it was centrifuged to remove any dye crystals. The medium from wells was aspirated, and 100 µL of neutral red was added to plates and incubated for at least 2 h in 37 °C and 5% CO2 in a humidified atmosphere. To inspect the absorption of neutral red to the lysosomes, microscope visualizations were performed. After incubation, cells were washed with PBS, and destain solution containing ethanol, deionized water, and glacial acetic acid (50:49:1) was added. Plates were shaken rapidly on a horizontal shaker at 37 °C. Absorption was measured using a Thermo Scientific™ (Waltham, MA, USA) Multiskan™ GO microplate spectrophotometer at 540 nm. The negative control was a medium with 1% DMSO, and the positive control was 1 µM staurosporine. Viability was calculated according to the following formula:(1) % Viability=ODtest substance−ODblind/ODnegative control−ODblind×100 Neutral red uptake assay was performed in quadruple (n = 4). Results were calculated to mean ± standard deviation (SD) using Microsoft Office Excel 2007. The viability in negative control was compared to 100%. Statistical analyses were performed using the GraphPad Prism 8.3 for Windows (GraphPad Software, La Jolla, CA, USA, www.graphpad.com). For IC50 results, non-linear regression analyses were performed, and a sigmoidal dose-response curve (variable slope) was fitted. Differences between groups and control were tested using an ANOVA test followed by Dunnett’s post hoc analysis. The significance was set at p ≤ 0.05.

AGS cell line [3] = experiment: Comet assay (alkaline single-cell gel electrophoresis), DNA damage; type: cell-based, human; settings: 50 µM
Protocol: To evaluate DNA damage induced by incubation with 3, alkaline single-cell gel electrophoresis (comet assay) was performed. Cells were seeded in 12-well plates in a density of 1 × 10^5 cell/well. After overnight incubation, the tested compound in IC50 concentration (50 µM) was added. After incubation, cells were harvested, centrifuged, and resuspended in PBS. The cell suspension was mixed with 1% low melting point agarose and attached to the slide covered with 1% normal melting point agarose. Subsequently, slides were incubated in a buffer (pH 10.0) containing 2.5 M NaCl, 10 mM Tris-HCl buffer, 100 mM EDTA, and 1% Triton X-100 for 1 h. Then samples were transferred to alkaline electrophoresis buffer containing 0.3 M […] and 1mM EDTA for a 20 min incubation followed by electrophoresis performed at 25 V and 300 mA for 20 min. After electrophoresis, samples were incubated with a neutral pH buffer (0.4 M Tris-HCl, pH 7.5) for 10 min and washed with deionized water. After air-drying, samples were stained with Hoechst 33342 and visualized with a fluorescence microscope using a UV filter. The damages were visually scored from 100 randomly selected cells. […] Based on results, the damage index (DI) was calculated according to the following formula:(3) DI=0×n0+1×n1+2×n2+3×n3+4×n4, where n stands for the amount of each class.

AGS cell line [4] = experiment: Annexin V/PI staining, flow cytometry; type: cell-based, human; settings: 24 h incubation
Protocol: A quantitative analysis of apoptosis was performed by flow cytometry with Alexa Fluor 488 annexin V and PI staining (Thermo Scientific Waltham, MA, USA). Briefly, 3 × 10^5 cells were seeded in 6-well plates. After overnight incubation, the tested compound was added to wells in 5 × IC50 concentration (250 µM). Cells were incubated and tested after 6, 12, 18, and 24 h, according to the manufacturer’s protocol. After incubation, cells were harvested, washed with PBS, and resuspended in 1× binding buffer to a final concentration of 1–5 × 10^6 cell/mL. Then 5 µL of Alexa Fluor 488-annexin V was added to 100 µL of cell suspension and incubated in the dark for 15 min. After incubation, the dye was removed, and cells were suspended in 1 mL of binding buffer. Directly before analysis, cells were incubated with 1 µL PI for 2 min and analyzed by flow cytometry (using CyFlow® Space flow cytometer and FloMax software).

A172 = experiment: Neutral red uptake assay, A172; type: cell-based; settings: Homo sapiens, A 172, 72 h exposure
Protocol: as §1

AGS cell line [5] = experiment: Microscopic observation of cell and nucleus morphology, Hoechst 33342; type: cell-based, human; settings: 50 µM, 72 h
Protocol: Morphological changes and DNA fragmentation were examined with an Olympus IX53 inverted fluorescence microscope after staining with Hoechst 33342 according to the manufacturer’s recommendations Thermo Scientific (Waltham, MA, USA). Briefly, cells were seeded in 12-well plates with a density of 1 × 10^5 cell/mL. After overnight incubation, the test substance was added in a half-maximal inhibitory (IC50) concentration and incubated for 24, 48, and 72 h. Before microscopic observation, both adherent and floating cells were collected, centrifuged, resuspended in PBS containing 1 µg/mL Hoechst 33342 dye. After 10 min incubation in the dark, the morphology of cells and DNA were visualized using a contrast phase and a UV filter.

HeLa = experiment: Neutral red uptake assay, HeLa; type: cell-based; settings: Homo sapiens, 72 h exposure
Protocol: as §1

[6] = Neutral red uptake assay, L-929 cell line (primary screening); type: cell-based, mouse; settings: mouse, L-929 cells, p < 0,05
Protocol: as §2

AGS = experiment: Neutral red uptake assay, AGS; type: cell-based; settings: Homo sapiens, 72 h exposure
Protocol: as §1

AGS cell line [7] = experiment: Flow cytometry viability, FDA/PI double staining; type: cell-based, human
Protocol: The flow cytometry analysis was performed to determine cell viability after treatment with a compound showing high proliferation inhibition in neutral red uptake assay. The test is based on FDA’s ability to pass through an intact cell membrane, where it can be hydrolyzed by cytoplasmic esterases to fluorescein, a bright green fluorophore. The protocol was based on a double-staining procedure with FDA and PI [75]. For stock solutions, FDA was dissolved in DMSO and PI in H2O to 1 mM concentrations. Cells were seeded in a 6-well plate with a density of 1 × 10^5 cell/well and maintained at 37 °C under 5% CO2 in a humidified atmosphere. After overnight incubation, cells were treated with a compound diluted to the following concentrations: 100, 80, 40, 10, and 1 µM. Flow cytometry analyses were performed after 24, 48, and 72 h incubation. For the analysis, both floating and adherent cells were collected, centrifuged at 1600 rpm, and washed with PBS. Cells were stained with FDA with a final concentration of 1 µM in PBS, and kept in the dark for 15 min. After incubation, cells were centrifuged, resuspended in ice-cold PBS, and kept on ice until analysis. Directly before testing, samples were stained with a 1 µM PI solution for 2 min. The acquisition was performed with a CyFlow® space flow cytometer, and data analyses were performed using the FloMax software (Partec, Münster, Germany). The percentage of viable cells was calculated based on FDA absorption according to the following formula:(2) % ViabilityFDA=% live cells under experimental conditions/% live cells from negative control×100

[8] = Enterococcus faecalis ATCC 29212
[9] = Enterococcus faecalis, ATCC29212, Enterococcus faecalis ATCC 29212, read-out: MBC
[10] = Enterococcus faecalis, ATCC29212, Enterococcus faecalis ATCC 29212, read-out: MIC

CCOc1ccc(NCc2c(C)nc(-c3ccccc3)nc2Nc2ccc(F)cc2)cc1 [Compound 2, 5-[(4-ethoxyanilino)methyl]-N-(4-fluorophenyl)-6-methyl-2-phenylpyrimidin-4-amine]
IC50 [1]: IC50 was not reached
MBC [2, 8]: 1024 µg/mL (≈ 2390 µM)
MIC [2, 8]: 512 µg/mL (≈ 1190 µM)
MBC [2, 9]: 512 µg/mL (≈ 1190 µM)
MIC [2, 10]: 1020 µg/mL (≈ 2390 µM)
IC50 (HepaRG): 404 µM
effect on L-929 survival (L-929 cell line): did not significantly affect L-929 survival
melting point: 163 to 164 °C

CCOc1ccc(N=Cc2c(C)nc(-c3ccccc3)nc2Nc2ccc(F)cc2)cc1 [Compound 3, 5-[(4-ethoxyphenyl)imino]methyl-N-(4-fluorophenyl)-6-methyl-2-phenylpyrimidin-4-amine]
DNA damage index (DI) (AGS cell line [3]; 48 h, control 52): 183
DNA damage index (DI) (AGS cell line [3]; 72 h, control 20): 259
necrotic cells (stained with PI only) (AGS cell line [4]; 250 µM, control 0.71%): 2.22%
late apoptotic cells (double-stained) (AGS cell line [4]; 250 µM, control 2.48%): 21.58%
early apoptotic cells (annexin V stained) (AGS cell line [4]; 250 µM, control 3.24%): 16.18%
viability at 250 µM (AGS cell line [4]; Homo sapiens, control 93.57%, read-out: viable cells (unstained)): 60%
IC50 (A172): 526 µM
cell and nucleus morphology (AGS cell line [5]): broke apart into apoptotic bodies
MBC [2, 8]: 32 µg/mL (≈ 75 µM)
MIC [2, 8]: 16 µg/mL (≈ 37.5 µM)
MBC [2, 9]: 16 µg/mL (≈ 37.5 µM)
MIC [2, 10]: 32 µg/mL (≈ 75 µM)
IC50 (HepaRG): 313 µM
IC50 (HeLa): 355 µM
viability at 250 µM ([6]; L-929, 250 µM): 115%
viability at 500 µM ([6]; L-929, 500 µM): 111%
viability at 1000 µM ([6]; L-929, 1000 µM): 115%
IC50 (AGS): 50.2 µM
cells in Q3 (unstained) (AGS cell line [7]; 100 µM): 43.72%
cells in Q4 (PI stained, dead) (AGS cell line [7]; 100 µM): 35.76%
viability at 1 µM (AGS cell line [7]; Homo sapiens, 1 µM, read-out: cells in Q1 (FDA stained, viable)): 81.5%
viability at 10 µM (AGS cell line [7]; Homo sapiens, 10 µM, read-out: cells in Q1 (FDA stained, viable)): 66.4%
viability at 40 µM (AGS cell line [7]; Homo sapiens, 40 µM, read-out: cells in Q1 (FDA stained, viable)): 62.4%
viability at 80 µM (AGS cell line [7]; Homo sapiens, 80 µM, read-out: cells in Q1 (FDA stained, viable)): 41.8%
viability at 100 µM (AGS cell line [7]; Homo sapiens, 100 µM, read-out: cells in Q1 (FDA stained, viable)): 20.2%
IC50 (AGS cell line [7]; Homo sapiens, referred to control with 1% DMSO): 53 µM

Cc1nc(-c2ccccc2)nc(Nc2ccc(F)cc2)c1C=O [Compound 4, 4-(4-fluoroanilino)-6-methyl-2-phenylpyrimidine-5-carbaldehyde]
melting point: 184 °C
